Results on one compound are retold here after patent US20240269238A1, “Therapeutic Regimens and Methods for Reducing Body Weight in a Subject with Fatty Liver Disease using a GLP-1R and GCGR Agonist” (Spitfire Pharma LLC, priority 2022, published 2024).

“Also recorded” adds a separate entry of the source.

In data set [1] the test system is alanine aminotransferase (ALT) and corrected T1 (cT1). In words: Phase 1b 24-week NAFLD study (Example 3): liver inflammation by ALT levels and cT1 imaging. Type of data set: in vivo, human. Particulars: all doses, week 24. The source says:
Provided herein is disclosure of a 12-week extension study of the study provided in Example 1, providing a 24-week a Phase 1b, randomized, double-blind, placebo-controlled study to assess the effects of pemvidutide (also termed herein as ALT-801), the safety of pemvidutide and effects on weight loss, hepatic fat fraction, anthropometric parameters, lipid metabolism, as well as inflammatory, fibrosis and other markers in diabetic and non-diabetic (type 2 diabetes) overweight and obese (BMI≥28.0 kg/m^2) subjects with NAFLD (defined as liver fat content (LFC) by MRI-PDFF ≥10%; absence of significant fibrosis, defined as FibroScan® LSM ≤10 kPa), alanine aminotransferase (ALT) and aspartate aminotransferase (AST) laboratory values of ≤75 IU/L and HbA1c <9.5. Men and women aged 18-65 years were studied. […]
The primary endpoint of this study was a reduction in liver fat content (LFC) by MRI-PDFF at Week 24 compared to Week 0 (zero). […] Adverse events (AEs), including serious and severe AEs, AEs leading to discontinuation, GI tolerability, vital signs, and glycemic control including fasting glucose and HbA1c levels were also measured. […]

A short description of data set [2]: Phase 1 12-week NAFLD study (Example 1): safety, tolerability, serum lipids, glycemic control, heart rate. Type of data set: in vivo, human. The settings on record: for AE leading to treatment discontinuation, number of subjects: gastrointestinal intolerance. The source says:
Provided herein is disclosure of a Phase 1, multicenter, randomized, double-blind, placebo-controlled study to assess the effects of Pemvidutide (also termed herein as ALT-801), the safety of Pemvidutide and effects on hepatic fat fraction, anthropometric parameters, lipid metabolism, inflammatory markers and fibrosis markers in diabetic and non-diabetic (type 2 diabetes) overweight and obese (BMI 28.0 kg/m^2) subjects with NAFLD. This study was designed to assess changes in hepatic fat fraction by MRI-PDFF (magnetic resonance imaging-proton density fat fraction) in diabetic and non-diabetic overweight and obese subjects with NAFLD after 12 weeks of ALT-801 treatment. The trial was conducted without adjunctive diet and exercise interventions. The study assessed changes in body weight, lipid metabolism, metabolic markers, and inflammatory markers and safety and tolerability of ALT-801 after 12 weeks of treatment. Subjects were stratified for the presence or absence of diabetes at baseline. Fibroscan and cT1 assessments evaluated changes in liver inflammatory and fibrotic activity at the end of 12 weeks of treatment.
The study, described in this example, was carried out in 94 subjects overweight and obese (body mass index [BMI] ≥28.0 kg/m^2) Type 2 diabetic and non-diabetic subjects with nonalcoholic fatty liver disease (NAFLD) over about 4.5 months, including up to a 35-day screening period, and 85-day treatment period and a 25-day follow-up period, with treatment with ALT-801 (a composition comprising SEQ ID NO.: 1, “study medication”) or placebo administered by subcutaneous (SC) injection once weekly for up to twelve (12) doses.
The safety objective of this study was to assess the safety and tolerability of ALT-801 in 18-65 years old subjects with NAFLD (NAFLD without significant fibrosis, defined as FibroScan® controlled attenuation parameter (CAP) ≥280 dB/m and liver stiffness measurement (LSM)<10 kPa (i.e., indicating the absence of significant fibrosis), magnetic resonance imaging derived proton density fat fraction (MRI-PDFF) ≥10%), hemoglobin Alc (HbAlc) of less than 9.5%, and alanine aminotransferase (ALT) or aspartate aminotransferase (AST) values of ≤[…]. The pharmacodynamic (PD) objectives of this study were to evaluate the effects of ALT-801 on hepatic fat fraction, anthropometric parameters, lipid metabolism, metabolic markers, inflammatory markers, fibrosis markers, and lipotoxicity markers. The pharmacokinetic (PK) objectives of this study were to evaluate the effects of ALT-801 and metformin exposure (drug interactions) on the subjects (e.g., ALT-801 and metformin concentrations in blood over time).
After providing informed consent, subjects underwent a screening period of up to 35 days. Subjects were instructed on how to maintain their normal diets, alcohol consumption and physical activities and not to start any new diets, supplements, or exercise programs at any time while participating in the study. Counseling was provided on diet and exercise on the Day 1 visit and reinforced at subsequent visits. Study subjects were randomized 1:1:1:1 to one of the following treatment arms: 1) ALT-8011.2 mg SC once weekly for 12 weeks; 2) ALT-8011.8 mg SC once weekly for 12 weeks; 3) ALT-801 0.6 mg SC at week 1, 1.2 mg SC at week 2, 1.8 mg SC once weekly for 2 weeks (weeks 3 and 4), and 2.4 mg SC once weekly for weeks 5 through 12; or, 4) placebo SC once weekly for 12 weeks. Subjects were stratified by presence or absence of diabetes at baseline. Subjects in the treatment arm with a final therapeutic dose of 2.4 mg underwent a rapid 4-week dose escalation to improve tolerability and reduce the possibility of adverse events. […] See FIG. 7, second 2.4 mg column as compared to the first 2.4 mg column (this study). See WO 2022/125598. […]

Regarding `CC[C@H](C)[C@H](NC(=O)[C@H](Cc1ccccc1)NC(=O)[C@H](CCC(=O)O)NC(=O)[C@@H]1CCCCNC(=O)CC[C@H](NC(=O)[C@H](CC(=O)O)NC(=O)[C@H](CC(C)C)NC(=O)[C@H](Cc2ccc(O)cc2)NC(=O)[C@H](CCCCN)NC(=O)[C@H](CO)NC(=O)[C@H](Cc2ccc(O)cc2)NC(=O)[C@H](CC(=O)O)NC(=O)[C@H](CO)NC(=O)[C@@H](NC(=O)[C@H](Cc2ccccc2)NC(=O)[C@@H](NC(=O)CNC(=O)[C@H](CCC(N)=O)NC(=O)C(C)(C)NC(=O)[C@@H](N)Cc2c[nH]cn2)[C@@H](C)O)[C@H](C)O)C(=O)N[C@@H](CCCCNC(=O)C2O[C@@H](OCCCCCCCCCCCCCCCCCC(=O)O)C(O)C(O)[C@@H]2O)C(=O)N[C@@H](C)C(=O)N[C@@H](C)C(=O)N1)C(=O)N[C@@H](CCC(N)=O)C(=O)N[C@@H](Cc1c[nH]c2ccccc12)C(=O)N[C@@H](CC(C)C)C(=O)N[C@@H](CC(C)C)C(=O)N[C@@H](CCC(N)=O)C(=O)N[C@H](C(N)=O)[C@@H](C)O` (some centres unmarked) [ALT-801, Pemvidutide], in data set [1], the ALT levels result is reported as “robust reduction of ALT levels” and the “cT1 response (80 ms reduction vs baseline)” value is reported as “high rates of cT1 response”. For the same compound, in data set [2] (1.8 mg arm, 12 weeks), the “AE leading to treatment discontinuation, rate” value is recorded as 4.3% and the “AE leading to treatment discontinuation, number of subjects” value is listed as 1. Further, in data set [2] (2.4 mg arm, 12 weeks), the “AE leading to treatment discontinuation, rate” value stood at 4.2% and the “AE leading to treatment discontinuation, number of subjects” value is given as 1. In data set [2] (12 weeks), the “AEs leading to treatment discontinuation (in words)” value is on record as “very low rates”; the “clinically significant ALT elevations (3-fold or greater the upper limit of normal)” value was “No clinically significant ALT elevations; also recorded: no three-fold or greater ALT elevations were observed”; the “glycemic control (HbA1c, fasting glucose)” value is recorded as “unaffected”; the “increases in heart rate (HR)” value is on record as 1-3 beat-per-minute (bpm). Moreover, in data set [2] (12 weeks treatment), the “serious and severe adverse events” value is reported as “No serious adverse events (AEs), severe AEs were observed; also recorded: no severe or serious AEs were observed”; the “symptoms experienced by subjects (severity)” value was “predominantly mild and transient”. Also, the serum lipids entry in data set [2] (after 12 weeks) is recorded as “not significantly altered”. In addition, the tolerability entry in data set [2] (each treatment arm (FIG. 7)) was “well tolerated”.
